Assay results taken from ChEMBL document CHEMBL4354827, “Discovery of Novel, Potent, Brain-Permeable, and Orally Efficacious Positive Allosteric Modulator of α7 Nicotinic Acetylcholine Receptor [4-(5-(4-Chlorophenyl)-4-methyl-2-propionylthiophen-3-yl)benzenesulfonamide]: Structure-Activity Relationship and Preclinical Characterization” (J Med Chem, 2020).
Active and inactive are the calls of the source. No cut-off for these calls is given here.

Assays:
[1] = Protein binding in mouse plasma at 5 uM incubated for 16 hrs under shaking condition by LC/MS/MS based rapid equilibrium dialysis method; assay type: ADME, cell-free; settings: read-out: PPB (converted)
[2] = test system: Rattus norvegicus; experiment: Improvement in social recognition scopolamine-induced Sprague-Dawley rat model of amnesia assessed as reduction in recognition index 3 mg/kg, po administered as single dose prior to 1 hr training and measured after 30 mins (reference value: 0.9); assay type: functional
[3] = test system: Rattus norvegicus; experiment: Memory enhancement effect in scopolamine-induced Wistar rat model of amnesia assessed as increase in discrimination index at 0.15 mg/kg, po for 7 days and measured on day 8 by novel object recognition test (reference value: 0.21); assay type: functional
[4] = molecular target: Cytochrome P450 2E1 (Homo sapiens, UniProt P05181); experiment: Inhibition of CYP2E1 (unknown origin) up to 10 uM; assay type: ADME
Chain of Cytochrome P450 2E1 (P05181 whole entry): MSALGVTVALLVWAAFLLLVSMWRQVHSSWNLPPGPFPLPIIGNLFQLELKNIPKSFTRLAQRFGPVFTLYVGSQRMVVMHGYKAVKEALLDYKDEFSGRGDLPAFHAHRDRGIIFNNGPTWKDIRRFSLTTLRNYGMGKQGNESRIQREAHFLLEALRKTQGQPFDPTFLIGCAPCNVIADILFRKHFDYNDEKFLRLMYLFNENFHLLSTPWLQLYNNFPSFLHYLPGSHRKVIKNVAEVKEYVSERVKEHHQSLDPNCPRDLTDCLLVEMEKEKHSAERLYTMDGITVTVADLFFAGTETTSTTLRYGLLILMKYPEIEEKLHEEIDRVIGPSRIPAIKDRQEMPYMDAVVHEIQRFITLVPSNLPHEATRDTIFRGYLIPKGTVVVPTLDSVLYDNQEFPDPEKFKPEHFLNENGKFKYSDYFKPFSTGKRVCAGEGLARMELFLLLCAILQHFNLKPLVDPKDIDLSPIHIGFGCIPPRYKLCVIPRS

[5] = test system: Rattus norvegicus; experiment: Improvement in social recognition scopolamine-induced Sprague-Dawley rat model of amnesia assessed as reduction in recognition index at 0.05 mg/kg, po for 7 days measured after 24 hrs (reference value: 0.93); assay type: functional
[6] = Drug level in scopolamine-induced Sprague-Dawley rat plasma at 0.5 mg/kg, po for 7 days; assay type: ADME, organism-based
[7] = test system: Rattus norvegicus; experiment: Memory enhancement effect in scopolamine-induced Wistar rat model of amnesia assessed as increase in discrimination index at 0.5 mg/kg, po for 7 days and measured on day 8 by novel object recognition test (reference value: 0.21); assay type: functional
[8] = test system: Rattus norvegicus; experiment: Memory enhancement effect in time-delay induced Wistar rat model of amnesia assessed as exploration time for object1 in acquisition trial at 0.15 mg/kg, po for 7 days and measured on day 8 by novel object recognition test (reference value: 13.73 sec); assay type: functional
[9] = molecular target: T1, Neuronal acetylcholine receptor subunit alpha-7 (Homo sapiens, UniProt P36544); experiment: Positive allosteric modulatory activity against alpha7 nAChR in human IMR-32 cells assessed as potentiation of PNU-282987-induced Ca2+ […] in presence of alpha-bungarotoxin/methyllycaconitine by FLIPR assay; assay type: cell-based
T1 sequence (P36544 whole entry): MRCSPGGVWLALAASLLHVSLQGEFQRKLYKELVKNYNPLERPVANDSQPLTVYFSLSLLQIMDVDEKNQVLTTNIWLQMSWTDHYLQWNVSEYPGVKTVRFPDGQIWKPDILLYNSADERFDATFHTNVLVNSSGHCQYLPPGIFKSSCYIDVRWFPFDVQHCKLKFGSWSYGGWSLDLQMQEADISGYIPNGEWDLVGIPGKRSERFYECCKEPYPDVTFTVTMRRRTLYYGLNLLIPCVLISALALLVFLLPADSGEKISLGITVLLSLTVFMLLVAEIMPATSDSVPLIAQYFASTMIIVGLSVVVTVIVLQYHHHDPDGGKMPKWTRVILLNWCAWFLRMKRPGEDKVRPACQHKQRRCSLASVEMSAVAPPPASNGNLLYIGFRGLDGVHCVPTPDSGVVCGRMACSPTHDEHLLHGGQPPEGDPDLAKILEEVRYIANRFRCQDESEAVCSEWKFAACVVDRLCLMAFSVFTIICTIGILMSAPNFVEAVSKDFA

[10] = test system: Rattus norvegicus; experiment: Memory enhancement effect in scopolamine-induced Wistar rat model of amnesia assessed as exploration time for novel object in retention trial at 0.05 mg/kg, po for 7 days and measured on day 8 by novel object recognition test (reference value: 12.09 sec); assay type: functional
[11] = test system: Rattus norvegicus; experiment: Memory enhancement effect in time-delay induced Wistar rat model of amnesia assessed as exploration time for object2 in acquisition trial at 1 mg/kg, po administered as single dose and measured on day 8 by novel object recognition test (reference value: 16.33 sec); assay type: functional
[12] = Tmax in BALB/c mouse at 10 mg/kg, po after 0.25 to 144 hrs by LC-MS/MS analysis; assay type: ADME, organism-based; settings: in vivo
[13] = Protein binding in dog plasma assessed as unbound fraction at 5 uM incubated for 16 hrs under shaking condition by LC/MS/MS based rapid equilibrium dialysis method; assay type: ADME, cell-free, Canis lupus familiaris
[14] = test system: Rattus norvegicus; experiment: Memory enhancement effect in scopolamine-induced Wistar rat model of amnesia assessed as exploration time for familiar object in retention trial at 0.15 mg/kg, po administered as single dose and measured on day 9 by novel object recognition test (reference value: 8.59 sec); assay type: functional
[15] = AUClast in BALB/c mouse at 10 mg/kg, po after 0.25 to 144 hrs by LC-MS/MS analysis; assay type: ADME, organism-based; design: dose 10 mg/kg, time upper 144 hr, time lower 0.25 hr, route oral; settings: in vivo
[16] = Ratio of AUCt in brain to plasma in Wistar rat at 10 mg/kg, po after 144 hrs by LC-MS/MS analysis; assay type: ADME, organism-based
[17] = test system: Rattus norvegicus; experiment: Memory enhancement effect in time-delay induced Wistar rat model of amnesia assessed as increase in novel object discrimination at 1 mg/kg, po administered as single dose after acquisition trial by novel object recognition test (reference value: 0.08); assay type: functional
[18] = molecular target: Cytochrome P450 2C9 (Homo sapiens, UniProt P11712); experiment: Inhibition of CYP2C9 (unknown origin) up to 10 uM; assay type: ADME
Chain of Cytochrome P450 2C9 (P11712 whole entry): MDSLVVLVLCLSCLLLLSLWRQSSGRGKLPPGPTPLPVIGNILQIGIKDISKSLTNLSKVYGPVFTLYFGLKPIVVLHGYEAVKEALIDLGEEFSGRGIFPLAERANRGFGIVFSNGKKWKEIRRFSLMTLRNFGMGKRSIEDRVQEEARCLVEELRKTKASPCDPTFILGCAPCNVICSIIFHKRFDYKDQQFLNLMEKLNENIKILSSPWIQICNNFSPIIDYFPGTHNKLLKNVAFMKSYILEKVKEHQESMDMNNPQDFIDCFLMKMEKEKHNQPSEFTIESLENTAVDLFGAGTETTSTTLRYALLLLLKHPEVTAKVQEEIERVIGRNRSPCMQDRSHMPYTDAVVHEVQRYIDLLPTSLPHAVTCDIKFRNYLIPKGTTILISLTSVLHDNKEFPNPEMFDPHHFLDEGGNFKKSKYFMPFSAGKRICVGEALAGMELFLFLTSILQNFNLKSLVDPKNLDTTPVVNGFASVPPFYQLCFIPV

[19] = molecular target: T1, Neuronal acetylcholine receptor subunit alpha-7; experiment: Positive allosteric modulatory activity against alpha7 nAChR in human IMR-32 cells assessed as potentiation of PNU-282987-induced Ca2+ […] at 1 uM by FLIPR assay relative to control; assay type: cell-based
[20] = Clearance in Beagle dog at 1 mg/kg, iv after 0.083 to 144 hrs by LC-MS/MS analysis; assay type: ADME, organism-based, Canis lupus familiaris; settings: in vivo
[21] = Drug concentration in Wistar rat brain at 10 mg/kg, po after 1 hr by LC-MS/MS analysis; assay type: ADME, organism-based; settings: read-out: Drug uptake
[22] = molecular target: T1, Neuronal acetylcholine receptor subunit alpha-7; experiment: Positive allosteric modulatory activity against alpha7 nAChR in human IMR-32 cells assessed as potentiation of PNU-282987-induced Ca2+ […] at by FLIPR assay; assay type: cell-based
[23] = test system: Rattus norvegicus; experiment: Memory enhancement effect in time-delay induced Wistar rat model of amnesia assessed as exploration time for novel object at 3 mg/kg, po administered as single dose after acquisition trial by novel object recognition test (reference value: 12.81 sec); assay type: functional
[24] = Half life in BALB/c mouse at 10 mg/kg, po after 0.25 to 144 hrs by LC-MS/MS analysis; assay type: ADME, organism-based; settings: in vivo
[25] = test system: Rattus norvegicus; experiment: Memory enhancement effect in time-delay induced Wistar rat model of amnesia assessed as exploration time for familiar object in retention trial at 1 mg/kg, po administered as single dose and measured on day 9 by novel object recognition test (reference value: 13.05 sec); assay type: functional
[26] = Half life in human at 7.5 to 50 mg administered for 14 days; assay type: ADME; settings: in vivo
[27] = Drug level in Wistar rat plasma at 0.05 mg/kg, po; assay type: ADME, organism-based; settings: in vivo
[28] = test system: Rattus norvegicus; experiment: Memory enhancement effect in scopolamine-induced Wistar rat model of amnesia assessed as exploration time for object2 in acquisition trial at 0.05 mg/kg, po for 7 days and measured on day 8 by novel object recognition test (reference value: 15.63 sec); assay type: functional
[29] = Brain to plasma permeability coefficient, Kp in Wistar rat at 10 mg/kg, po after 24 hrs by LC-MS/MS analysis; assay type: ADME, organism-based
[30] = test system: Rattus norvegicus; experiment: Memory enhancement effect in scopolamine-induced Wistar rat model of amnesia assessed as exploration time for familiar object in retention trial at 0.05 mg/kg, po administered as single dose and measured on day 9 by novel object recognition test (reference value: 8.59 sec); assay type: functional
[31] = Protein binding in mouse plasma assessed as unbound fraction at 5 uM incubated for 16 hrs under shaking condition by LC/MS/MS based rapid equilibrium dialysis method; assay type: ADME, cell-free
[32] = Ratio of Cmax in brain to plasma in Wistar rat at 10 mg/kg, po after 144 hrs by LC-MS/MS analysis; assay type: ADME, organism-based
[33] = test system: Rattus norvegicus; experiment: Improvement in social recognition scopolamine-induced Sprague-Dawley rat model of amnesia assessed as increase in reduction in social investigation time at 0.50 mg/kg, po for 7 days measured after 24 hrs (Rvb =6.59%); assay type: functional; design: scale not given: the % may be the effect or the level left
[34] = test system: Rattus norvegicus; experiment: Memory enhancement effect in scopolamine-induced Wistar rat model of amnesia assessed as exploration time for object1 in acquisition trial at 0.05 mg/kg, po for 7 days and measured on day 8 by novel object recognition test (reference value: 16.11 sec); assay type: functional
[35] = Cmax in Wistar rat plasma at 10 mg/kg, po after 1 to 144 hrs by LC-MS/MS analysis; assay type: ADME, organism-based; design: dose 10 mg/kg, route oral

`CCC(=O)c1sc(-c2ccc(Cl)cc2)c(C)c1-c1ccc(S(N)(=O)=O)cc1` gave a fraction unbound at 16 h, 5 µM [1] of 0.0116, an Activity_index [2] of 0.45 and an Activity_index [3] of 0.5. The “inhibition (INH)” value [4] was “Not Active”, the Activity_index [5] was 0.56 and the concentration at 168 h [6] was 0.58 µM. The Activity_index [7] was 0.45, the Time [8] was 10.95 s and the Activity [9] was “inactive”. For the same compound, the Time [10] was 14.65 s, the Time [11] was 23.96 s and the Tmax [12] was 4 h. The fraction unbound at 16 h, 5 µM [13] was 0.0031, the Time [14] was 4.86 s and the AUC(0-t) [15] was 63 µM·h. For the same compound, the Kp at 144 h [16] was 9, the Activity_index [17] was 0.38 and the “inhibition (INH)” value [18] was “Not Active”. For the same compound, the fold change (FC) [19] was 22, the clearance [20] was 0.042 L/h/kg and the concentration at 1 h [21] was 4.03 µM. For the same compound, the EC50 [22] was 0.324 µM, the Time [23] was 18.61 s and the half-life [24] was 22 h. For the same compound, the Time [25] was 10.49 s, the half-life [26] was 48 to 80.9 h and the concentration [27] was 0.04 µM. It also gave a Time [28] of 18.31 s, a Kp at 24 h [29] of 8.85 and a Time [30] of 8.03 s. The fraction unbound at 16 h, 5 µM [31] was 0.0116, the Kp at 144 h [32] was 10 and the Activity [33] was 25.35%. The Time [34] was 16.07 s and the Cmax [35] was 0.9 µM.
